From EP0047496A1, “Sulfonyl ureas, processes for their production, pharmaceutical compositions based on these compounds and their use” (HOECHST AKTIENGESELLSCHAFT, priority 1980, dated 1982)

System: Kaninchen
Assay: Blood sugar lowering after oral administration to rabbits (autoanalyzer)
Type: in vivo
Settings: 0,4 mg/kg oral, nach 6 Stunden
Method: Die blutzuckersenkende Wirkung der erfindungsgemäßen Benzolsulfonylharnstoffe kann dadurch festgestellt werden, daß man sie als freie Verbindungen oder in Form der Natriumsalze an normal ernährte Kaninchen verfüttert und den Blutzuckerwert nach der bekannten Methode von Hagedorn-Jensen oder mit einem Autoanalyzer über eine längere Zeitdauer ermittelt.
Die routinemäßige Bestimmung der blutzuckersenkenden Wirkung kann mit Dosierungen von z.B. 10,2 oder 0,4 mg oder mit noch geringeren Mengen Wirksubstanz pro kg Versuchstier nach bekannten Methoden erfolgen.
Die folgenden Verbindungen I bis V wurden in Dosierungen von 2 mg/kg Kaninchen oral verabreicht und die Blutzuckerwerte wurden mit einem Autoanalyzer über eine Zeitdauer von 24 Stunden ermittelt. Die hierbei gemessene Blutzuckersenkung ist in der nachfolgenden Tabelle in % nach ... Stunden angegeben. • I N-(4-<2-(N'-<5-Chlor-2-methoxy-benzoyl>-ureido)-äthyl>- benzolsulfonyl)-N'-cyclohexyl-harnstoff • II N-(4-<2-(N'-<5-Chlor-2-methoxy-benzoyl>-ureido)-äthyl>- benzolsulfonyl)-N'-butyl-harnsotff • III N-(4-<2-(N'-<5-Chlor-2-methoxy-benzoyl>-ureido)-äthyl>- benzolsulfonyl)-N'-cyclopentyl-harnstoff • IV N-(4-<2-(N'-<2-Methoxy-5-methyl-benzoyl)-ureido)-äthyl>- benzolsulfonyl)-N'-cyclohexyl-harnstoff • V N-(4-<2-(N'-<2-Methoxy-5-methyl-benzoyl>-ureido)-äthyl>- benzolsulfonyl)-N'-(4-methyl-cyclohexyl)-harnstoff [formula]
Die Verbindungen I, IV und V wurden in Dosierungen von 0,4 mg/kg oral an Kaninchen verabreicht und die Blutzuckersenkung gemessen. Sie betrug nach 6 Stunden 40 % (Verbindung I), 41 % (Verbindung IV) und 33 % (Verbindung V).

Structure (SMILES)	Blutzuckersenkung [%]
COc1ccc(Cl)cc1C(=O)NC(=O)NCCc1ccc(S(=O)(=O)NC(=O)NC2CCCCC2)cc1 [Verbindung I, N-(4-<2-(N'-<5-Chlor-2-methoxy-benzoyl>-ureido)-äthyl>- benzolsulfonyl)-N'-cyclohexyl-harnstoff]	40
COc1ccc(C)cc1C(=O)NC(=O)NCCc1ccc(S(=O)(=O)NC(=O)NC2CCC(C)CC2)cc1 (stereo not drawn) [Verbindung V, N-(4-<2-(N'-<2-Methoxy-5-methyl-benzoyl>-ureido)-äthyl>- benzolsulfonyl)-N'-(4-methyl-cyclohexyl)-harnstoff]	33
COc1ccc(C)cc1C(=O)NC(=O)NCCc1ccc(S(=O)(=O)NC(=O)NC2CCCCC2)cc1 [Verbindung IV]	41
